Measured values reported in patent US10070645B2, “N-cycloalkyl-N-{[2-(1-substitutedcycloalkyl)phenyl]methylene}-(thio)carboxamide derivatives” (BAYER CROPSCIENCE AKTIENGESELLSCHAFT, priority 2013, dated 2018).

Assay: log P by HPLC on a reversed-phase column (C 18), EEC Directive 79/831 Annex V.A8
Type: physicochemical
Conditions: HPLC, reversed-phase column (C 18), 40° C., 0.1% aqueous formic acid and acetonitrile, linear gradient 10% to 90% acetonitrile
Method: In table 1, the log P values were determined in accordance with EEC Directive 79/831 Annex V.A8 by HPLC (High Performance Liquid Chromatography) on a reversed-phase column (C 18), using the method described below:
Temperature: 40° C.; Mobile phases: 0.1% aqueous formic acid and acetonitrile; linear gradient from 10% acetonitrile to 90% acetonitrile.
Calibration was carried out using unbranched alkan-2-ones (comprising 3 to 16 carbon atoms) with known log P values (determination of the log P values by the retention times using linear interpolation between two successive alkanones). lambda-max-values were determined using UV-spectra from 200 nm to 400 nm and the peak values of the chromatographic signals.

| Structure (SMILES) | chromatographic logP (reversed-phase HPLC column (C 18)) | logP |
| --- | --- | --- |
| Cn1nc(C(F)F)c(C(=O)N(Cc2cc(Cl)ccc2C2(C)CC2)C2CC2)c1F [I.060, N-[5-chloro-2-(1-methylcyclopropyl)benzyl]-N-cyclopropyl-3-(difluoromethyl)-5-fluoro-1-methyl-1H-pyrazole-4-carboxamide] | 4.26 | – |
| Cn1nc(C(F)F)c(C(=O)N(Cc2cc(Cl)ccc2C2(C)CC2)C2CC2)c1Cl [I.061] | – | 4.44 |
| Cn1nc(C(F)F)c(C(=S)N(Cc2cc(Cl)ccc2C2(C)CC2)C2CC2)c1F [I.062] | – | 4.82 |
| Cn1nc(C(F)F)c(C(=S)N(Cc2cc(Cl)ccc2C2(C)CC2)C2CC2)c1Cl [I.063] | – | 5.03 |
| Cn1nc(C(F)F)c(C(=O)N(Cc2cc(C3CC3)ccc2C2(C)CC2)C2CC2)c1F [I.064] | – | 4.56 |
| CCc1ccc(C2(C)CC2)c(CN(C(=O)c2c(C(F)F)nn(C)c2F)C2CC2)c1 [I.065] | – | 4.56 |
| Cn1nc(C(F)F)c(C(=S)N(Cc2cc(F)ccc2C2(C)CC2)C2CC2)c1F [I.068] | – | 4.49 |
| Cn1nc(C(F)F)c(C(=S)N(Cc2cc(F)ccc2C2(C)CC2)C2CC2)c1Cl [I.069] | – | 4.64 |
| CC(C)c1ccc(C2(C)CC2)c(CN(C(=O)c2c(C(F)F)nn(C)c2F)C2CC2)c1 [I.070] | – | 4.61 |
| Cc1ccc(C2(C)CC2)c(CN(C(=O)c2c(C(F)F)nn(C)c2Cl)C2CC2)c1 [I.072] | – | 4.36 |
| Cc1ccc(C2(C)CC2)c(CN(C(=S)c2c(C(F)F)nn(C)c2F)C2CC2)c1 [I.073] | – | 4.80 |
| Cc1ccc(C2(C)CC2)c(CN(C(=S)c2c(C(F)F)nn(C)c2Cl)C2CC2)c1 [I.074] | – | 4.98 |
| Cc1ccc(C2(C)CC2)c(CN(C(=O)c2c(C(F)F)nn(C)c2F)C2(C)CC2)c1 [I.075] | – | 4.51 |
| Cc1ccc(C2(C)CC2)c(CN(C(=O)c2c(C(F)F)nn(C)c2F)C2(C#N)CC2)c1 [I.076] | – | 3.73 |
| Cc1ccc(C2(C)CC2)c(CN(C(=O)c2c(C(F)F)nn(C)c2Cl)C2(C)CC2)c1 [I.077] | – | 4.63 |
| Cc1ccc(C2(C)CC2)c(CN(C(=O)c2c(C(F)F)nn(C)c2Cl)C2(C#N)CC2)c1 [I.078] | – | 3.87 |
| C=Cc1ccc(C2(C)CC2)c(CN(C(=O)c2c(C(F)F)nn(C)c2F)C2CC2)c1 [I.080] | – | 4.34 |
| Cn1nc(C(F)F)c(C(=O)N(Cc2cc(-c3csc4ccccc34)ccc2C2(C)CC2)C2CC2)c1F [I.081] | – | 5.48 |
| Cn1nc(C(F)F)c(C(=O)N(Cc2cc(-c3cn(C)c4ccccc34)ccc2C2(C)CC2)C2CC2)c1F [I.082] | – | 5.00 |
| C=C(C)c1ccc(C2(C)CC2)c(CN(C(=O)c2c(C(F)F)nn(C)c2F)C2CC2)c1 [I.083] | – | 4.67 |
| Cn1nc(C(F)F)c(C(=O)N(Cc2c(C3(C)CC3)ccc(Cl)c2F)C2CC2)c1F [I.084] | – | 4.24 |
| Cn1nc(C(F)F)c(C(=O)N(Cc2c(C3(C)CC3)ccc(Cl)c2Cl)C2CC2)c1F [I.085] | – | 4.51 |
| Cc1ccc(C2(C)CC2)c(CN(C(=O)c2c(C(F)F)nn(C)c2F)C2CC2)c1Cl [I.086] | – | 4.51 |
| Cc1ccc(C2(C)CC2)c(CN(C(=O)c2c(C(F)F)nn(C)c2F)C2CC2)c1F [I.087] | – | 4.21 |
| Cn1nc(C(F)F)c(C(=O)N(Cc2c(C(F)(F)F)cccc2C2(C)CC2)C2CC2)c1F [I.088] | – | 4.46 |
| Cn1nc(C(F)F)c(C(=O)N(Cc2c(F)cccc2C2(C)CC2)C2CC2)c1F [I.089] | – | 3.79 |

| Structure (SMILES) | chromatographic logP (reversed-phase HPLC column (C 18)) | logP |
| --- | --- | --- |
| C#CC1(c2ccc(Cl)cc2CN(C(=O)c2c(C(F)F)nn(C)c2F)C2CC2)CC1 [I.090] | – | 3.73 |
| C#CC1(c2ccc(Cl)cc2CN(C(=O)c2c(C(F)F)nn(C)c2Cl)C2CC2)CC1 [I.091] | – | 3.89 |
| C#CC1(c2ccc(C)cc2CN(C(=O)c2c(C(F)F)nn(C)c2F)C2CC2)CC1 [I.092] | – | 3.68 |
| C#CC1(c2ccc(C)cc2CN(C(=O)c2c(C(F)F)nn(C)c2Cl)C2CC2)CC1 [I.093] | – | 3.78 |
| Cn1nc(C(F)F)c(C(=O)N(Cc2cc(Cl)ccc2C2(C#N)CC2)C2CC2)c1F [I.094] | – | 3.13 |
| Cn1nc(C(F)F)c(C(=O)N(Cc2cc(Cl)ccc2C2(C#N)CC2)C2CC2)c1Cl [I.095] | – | 3.31 |
| CCC1(c2ccccc2CN(C(=O)c2c(C(F)F)nn(C)c2F)C2CC2)CC1 [I.096] | – | 4.21 |
| CCC1(c2ccccc2CN(C(=O)c2c(C(F)F)nn(C)c2Cl)C2CC2)CC1 [I.097] | – | 4.34 |
| CCC1(c2ccccc2CN(C(=S)c2c(C(F)F)nn(C)c2F)C2CC2)CC1 [I.098] | – | 4.85 |
| CCC1(c2ccccc2CN(C(=S)c2c(C(F)F)nn(C)c2Cl)C2CC2)CC1 [I.099] | – | 5.00 |
| CCC1(c2cc(C(F)(F)F)ccc2CN(C(=O)c2c(C(F)F)nn(C)c2F)C2CC2)CC1 [I.100] | – | 4.75 |
| CCC1(c2cc(C(F)(F)F)ccc2CN(C(=O)c2c(C(F)F)nn(C)c2Cl)C2CC2)CC1 [I.101] | – | 4.86 |
| CCC1(c2cc(Cl)ccc2CN(C(=O)c2c(C(F)F)nn(C)c2F)C2CC2)CC1 [I.102] | – | 4.67 |
| CCC1(c2cc(Cl)ccc2CN(C(=O)c2c(C(F)F)nn(C)c2Cl)C2CC2)CC1 [I.103] | – | 4.82 |
| CCC1(c2cc(C)ccc2CN(C(=O)c2c(C(F)F)nn(C)c2F)C2CC2)CC1 [I.104] | – | 4.59 |
| CCC1(c2cc(C)ccc2CN(C(=O)c2c(C(F)F)nn(C)c2Cl)C2CC2)CC1 [I.105] | – | 4.74 |
| CCC1(c2cc(C)c(F)cc2CN(C(=O)c2c(C(F)F)nn(C)c2Cl)C2CC2)CC1 [I.107] | – | 4.85 |
| CCC1(c2ccc(C(F)(F)F)cc2CN(C(=O)c2c(C(F)F)nn(C)c2F)C2CC2)CC1 [I.108] | – | 4.67 |
| CCC1(c2ccc(C(F)(F)F)cc2CN(C(=O)c2c(C(F)F)nn(C)c2Cl)C2CC2)CC1 [I.109] | – | 4.85 |
| CCC1(c2ccc(Cl)cc2CN(C(=O)c2c(C(F)F)nn(C)c2Cl)C2CC2)CC1 [I.111] | – | 4.77 |
| CCC1(c2ccc(C)cc2CN(C(=O)c2c(C(F)F)nn(C)c2Cl)C2CC2)CC1 [I.112] | – | 4.77 |
| CCC1(c2ccc(C)cc2CN(C(=O)c2c(C(F)F)nn(C)c2F)C2CC2)CC1 [I.113] | – | 4.61 |
| CCC1(c2cccc(F)c2CN(C(=O)c2c(C(F)F)nn(C)c2F)C2CC2)CC1 [I.114] | – | 4.19 |
| CCC1(c2cccc(F)c2CN(C(=O)c2c(C(F)F)nn(C)c2Cl)C2CC2)CC1 [I.115] | – | 4.34 |
| COC1(c2ccccc2CN(C(=O)c2c(C(F)F)nn(C)c2F)C2CC2)CC1 [I.116] | – | 3.27 |
| COC1(c2ccccc2CN(C(=O)c2c(C(F)F)nn(C)c2Cl)C2CC2)CC1 [I.117] | – | 3.42 |

| Structure (SMILES) | chromatographic logP (reversed-phase HPLC column (C 18)) | logP |
| --- | --- | --- |
| COC1(c2ccc(Cl)cc2CN(C(=O)c2c(C(F)F)nn(C)c2F)C2CC2)CC1 [I.118] | – | 3.67 |
| COC1(c2ccc(Cl)cc2CN(C(=O)c2c(C(F)F)nn(C)c2Cl)C2CC2)CC1 [I.119] | – | 3.87 |
| COC1(c2ccc(C(C)C)cc2CN(C(=O)c2c(C(F)F)nn(C)c2F)C2CC2)CC1 [I.121] | – | 4.29 |
| COC1(c2ccc(C)cc2CN(C(=O)c2c(C(F)F)nn(C)c2F)C2CC2)CC1 [I.122] | – | 3.57 |
| COC1(c2ccc(C)cc2CN(C(=O)c2c(C(F)F)nn(C)c2Cl)C2CC2)CC1 [I.123] | – | 3.74 |
| COC1(c2ccc(C3=CCOCC3)cc2CN(C(=O)c2c(C(F)F)nn(C)c2F)C2CC2)CC1 [I.124] | – | 3.55 |
| COC1(c2ccc(-c3ccoc3)cc2CN(C(=O)c2c(C(F)F)nn(C)c2F)C2CC2)CC1 [I.125] | – | 3.80 |
| COC1(c2ccc(C3=CCCC3)cc2CN(C(=O)c2c(C(F)F)nn(C)c2F)C2CC2)CC1 [I.126] | – | 4.76 |
| C=C(C)c1ccc(C2(OC)CC2)c(CN(C(=O)c2c(C(F)F)nn(C)c2F)C2CC2)c1 [I.127] | – | 4.12 |
| CCCC1(c2cc(Cl)ccc2CN(C(=O)c2c(C(F)F)nn(C)c2F)C2CC2)CC1 [I.128] | – | 5.14 |
| CCCC1(c2cc(Cl)ccc2CN(C(=O)c2c(C(F)F)nn(C)c2Cl)C2CC2)CC1 [I.129] | – | 5.31 |
| CCCC1(c2ccc(C)cc2CN(C(=O)c2c(C(F)F)nn(C)c2F)C2CC2)CC1 [I.130] | – | 5.03 |
| CCCC1(c2ccc(C)cc2CN(C(=O)c2c(C(F)F)nn(C)c2Cl)C2CC2)CC1 [I.131] | – | 5.19 |
| Cc1ccc(C2(Cl)CC2)c(CN(C(=O)c2c(C(F)F)nn(C)c2F)C2CC2)c1 [I.132] | – | 3.89 |
| Cc1ccc(C2(Cl)CC2)c(CN(C(=O)c2c(C(F)F)nn(C)c2Cl)C2CC2)c1 [I.133] | – | 4.06 |
| Cc1ccc(C2(C3CC3)CC2)c(CN(C(=O)c2c(C(F)F)nn(C)c2F)C2CC2)c1 [I.134] | – | 4.59 |
| Cc1ccc(C2(C3CC3)CC2)c(CN(C(=O)c2c(C(F)F)nn(C)c2Cl)C2CC2)c1 [I.135] | – | 4.72 |
| Cc1ccc(C2(C(C)C)CC2)c(CN(C(=O)c2c(C(F)F)nn(C)c2Cl)C2CC2)c1 [I.136] | – | 5.11 |
| Cc1ccc(C2(C(C)C)CC2)c(CN(C(=O)c2c(C(F)F)nn(C)c2F)C2CC2)c1 [I.137] | – | 4.95 |
| CCOC1(c2ccc(C)cc2CN(C(=O)c2c(C(F)F)nn(C)c2Cl)C2CC2)CC1 [I.138] | – | 4.21 |
| CCOC1(c2ccc(C)cc2CN(C(=O)c2c(C(F)F)nn(C)c2F)C2CC2)CC1 [I.139] | – | 4.06 |
| Cc1ccc(C2(C)CC2Cl)c(CN(C(=O)c2c(C(F)F)nn(C)c2F)C2CC2)c1Cl (centres unmarked) [I.140] | – | 4.58 |
| Cn1nc(C(F)F)c(C(=O)N(Cc2c(C(F)(F)F)cccc2C2(C)CC2Cl)C2CC2)c1F (centres unmarked) [I.141] | – | 4.46 |
| Cn1nc(C(F)F)c(C(=O)N(Cc2ccccc2C2(C(F)F)CC2)C2CC2)c1F [I.142] | – | 3.33 |
| Cn1nc(C(F)F)c(C(=O)N(Cc2ccccc2C2(C(F)F)CC2)C2CC2)c1Cl [I.143] | – | 3.46 |
